According to PubChem BioAssay AID192 (DTP/NCI, 2004):
“And” between values parts separate entries of the source, which are not always exact repeats. Identical values can stand only once. Toxic doses and inconclusive results are not listed.

Tested on: BDF1 mice, B16 melanoma ip, median survival T/C
Test: NCI In Vivo Anticancer Drug Screen. Data for tumor model B16 Melanoma (intraperitoneal) in B6D2F1 (BDF1) mice
Settings: endpoint: median survival time, higher = longer survival
In short: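 Mice with transplantable tumors; drug vs vehicle groups; endpoint survival or tumor size; value = T/C.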

[1] = dose: 100.0 mg/kg/injection, schedule: Q01DX009 (ip), vehicle: Klucel (hydroxypropylcellulose) (HPC)
[2] = dose: 200.0 mg/kg/injection, schedule: Q01DX009 (ip), vehicle: Klucel (hydroxypropylcellulose) (HPC)

In the case of COc1cccc2c1C(=O)c1c(O)c3c(c(O)c1C2=O)C[C@@](O)(C(=O)CO)C[C@@H]3OC1CC(N)C(O)C(C)O1 (stereo partly specified), the T/C (dose: 0.12 mg/kg/injection, schedule: Q01DX009 (ip), vehicle: saline) is reported as 163 % of control, the T/C (dose: 0.13 mg/kg/injection, schedule: Q01DX009 (ip), vehicle: water) is reported as 202 % of control and the T/C (dose: 0.25 mg/kg/injection, schedule: Q01DX009 (ip), vehicle: water) is reported as 181 % of control and 202 % of control and 266 % of control. For the same molecule, the T/C (dose: 0.37 mg/kg/injection, schedule: Q01DX009 (ip), vehicle: saline) was 412 % of control, the T/C (dose: 0.37 mg/kg/injection, schedule: Q03HX008 (ip), vehicle: saline) was 154 % of control and 270 % of control and the T/C (dose: 0.47 mg/kg/injection, schedule: Q01DX001 (ip), vehicle: water) was 175 % of control. The T/C (dose: 0.5 mg/kg/injection, schedule: Q01DX009 (ip), vehicle: water) was 222 % of control and 260 % of control and 274 % of control, the T/C (dose: 0.5 mg/kg/injection, schedule: Q03HX008 (ip), vehicle: saline) was 194 % of control and the T/C (dose: 0.75 mg/kg/injection, schedule: Q01DX001 (ip), vehicle: saline) was 162 % of control. The T/C (dose: 0.75 mg/kg/injection, schedule: Q01DX001 (ip), vehicle: water) was 154 % of control, the T/C (dose: 0.75 mg/kg/injection, schedule: Q01DX009 (ip), vehicle: saline) was 154 % of control and 412 % of control and the T/C (dose: 0.75 mg/kg/injection, schedule: Q03DX001 (ip), vehicle: saline) was 168 % of control. The T/C (dose: 0.75 mg/kg/injection, schedule: Q03HX008 (ip), vehicle: saline) was 164 % of control and 412 % of control, the T/C (dose: 0.75 mg/kg/injection, schedule: Q04DX003 (ip), vehicle: saline) was 210 % of control and the T/C (dose: 0.94 mg/kg/injection, schedule: Q01DX001 (ip), vehicle: water) was 194 % of control and 197 % of control. For the same molecule, the T/C (dose: 1.0 mg/kg/injection, schedule: Q01DX009 (ip), vehicle: water) was 260 % of control and 274 % of control and 339 % of control, the T/C (dose: 1.0 mg/kg/injection, schedule: Q03HX008 (ip), vehicle: saline) was 169 % of control and the T/C (dose: 1.25 mg/kg/injection, schedule: Q01DX001 (ip), vehicle: saline) was 210 % of control. The T/C (dose: 1.4 mg/kg/injection, schedule: Q04DX003 (ip), vehicle: saline) was 102 % of control, the T/C (dose: 1.44 mg/kg/injection, schedule: Q04DX003 (ip), vehicle: water) was 158 % of control and 295 % of control and the T/C (dose: 1.5 mg/kg/injection, schedule: Q01DX001 (ip), vehicle: saline) was 100 % of control and 114 % of control. The T/C (dose: 1.5 mg/kg/injection, schedule: Q01DX009 (ip), vehicle: saline) was 164 % of control and 412 % of control, the T/C (dose: 1.5 mg/kg/injection, schedule: Q03DX001 (ip), vehicle: saline) was 412 % of control and the T/C (dose: 1.5 mg/kg/injection, schedule: Q03HX008 (ip), vehicle: saline) was 206 % of control. The T/C (dose: 1.5 mg/kg/injection, schedule: Q04DX003 (ip), vehicle: saline) was 152 % of control and 412 % of control, the T/C (dose: 1.88 mg/kg/injection, schedule: Q01DX001 (ip), vehicle: water) was 241 % of control and 308 % of control and the T/C (dose: 1.9 mg/kg/injection, schedule: Q01DX001 (ip), vehicle: water) was 165 % of control. For the same molecule, the T/C (dose: 2.0 mg/kg/injection, schedule: Q01DX009 (ip), vehicle: water) was 219 % of control and 275 % of control, the T/C (dose: 2.0 mg/kg/injection, schedule: Q03HX008 (ip), vehicle: saline) was 152 % of control and the T/C (dose: 2.4 mg/kg/injection, schedule: Q04DX003 (ip), vehicle: saline) was 105 % of control. The T/C (dose: 2.4 mg/kg/injection, schedule: Q04DX003 (ip), vehicle: water) was 155 % of control and 233 % of control, the T/C (dose: 3.0 mg/kg/injection, schedule: Q03DX001 (ip), vehicle: saline) was 177 % of control and the T/C (dose: 3.0 mg/kg/injection, schedule: Q04DX003 (ip), vehicle: saline) was 162 % of control and 412 % of control. For the same molecule, the T/C (dose: 3.75 mg/kg/injection, schedule: Q01DX001 (ip), vehicle: water) was 214 % of control and 308 % of control, the T/C (dose: 3.8 mg/kg/injection, schedule: Q01DX001 (ip), vehicle: water) was 111 % of control and the T/C (dose: 4.0 mg/kg/injection, schedule: Q04DX003 (ip), vehicle: water) was 184 % of control and 202 % of control. The T/C (dose: 5.9 mg/kg/injection, schedule: Q04DX003 (ip), vehicle: saline) was 428 % of control, the T/C (dose: 6.0 mg/kg/injection, schedule: Q01DX001 (ip), vehicle: saline) was 308 % of control and the T/C (dose: 6.0 mg/kg/injection, schedule: Q03DX001 (ip), vehicle: saline) was 264 % of control. The T/C (dose: 6.0 mg/kg/injection, schedule: Q04DX003 (ip), vehicle: saline) was 189 % of control, the T/C (dose: 6.67 mg/kg/injection, schedule: Q04DX003 (ip), vehicle: saline) was 118 % of control and the T/C (dose: 6.67 mg/kg/injection, schedule: Q04DX003 (ip), vehicle: water) was 198 % of control and 321 % of control. The T/C (dose: 8.0 mg/kg/injection, schedule: Q04DX003 (ip), vehicle: saline) was 165 % of control and 180 % of control, the T/C (dose: 9.0 mg/kg/injection, schedule: Q04DX003 (ip), vehicle: saline) was 103 % of control and the T/C (dose: 12.0 mg/kg/injection, schedule: Q03DX001 (ip), vehicle: saline) was 100 % of control. The T/C (dose: 13.3 mg/kg/injection, schedule: Q01DX001 (ip), vehicle: saline) was 150 % of control and 155 % of control, the T/C (dose: 32.0 mg/kg/injection, schedule: Q01DX001 (ip), vehicle: saline) was 40 % of control and the T/C (dose: 32.0 mg/kg/injection, schedule: Q01DX001 (ip), vehicle: water) was 116 % of control. The T/C (dose: 64.0 mg/kg/injection, schedule: Q01DX001 (ip), vehicle: saline) was 25 % of control, the T/C (dose: 128.0 mg/kg/injection, schedule: Q01DX001 (ip), vehicle: saline) was 20 % of control and the T/C (dose: 125.0 micrograms/kg/injection, schedule: Q01DX009 (ip), vehicle: other) was 178 % of control. The T/C (dose: 250.0 micrograms/kg/injection, schedule: Q01DX009 (ip), vehicle: other) was 246 % of control, the T/C (dose: 500.0 micrograms/kg/injection, schedule: Q01DX009 (ip), vehicle: other) was 379 % of control and the T/C (dose: 518.0 micrograms/kg/injection, schedule: Q01DX004 (ip), vehicle: other) was 112 % of control. The T/C (dose: 864.0 micrograms/kg/injection, schedule: Q01DX004 (ip), vehicle: other) was 122 % of control, the T/C (dose: 1000.0 micrograms/kg/injection, schedule: Q01DX009 (ip), vehicle: other) was 380 % of control and the T/C (dose: 2000.0 micrograms/kg/injection, schedule: Q01DX009 (ip), vehicle: other) was 382 % of control. The T/C (dose: 4000.0 micrograms/kg/injection, schedule: Q01DX004 (ip), vehicle: other) was 100 % of control and 112 % of control.
CCCCCCCCC(=O)CCC was tested, and the T/C (dose: 100.0 mg/kg/injection, schedule: Q04DX003 (ip), vehicle: Klucel (hydroxypropylcellulose) (HPC)) was 88 % of control, the T/C (dose: 200.0 mg/kg/injection, schedule: Q04DX003 (ip), vehicle: Klucel (hydroxypropylcellulose) (HPC)) was 90 % of control and the T/C (dose: 400.0 mg/kg/injection, schedule: Q04DX003 (ip), vehicle: Klucel (hydroxypropylcellulose) (HPC)) was 94 % of control.
With C[C@@H]1CC2=CC(=O)CC[C@@H]2[C@H]2CC[C@@]3(C)[C@@H](CC[C@]3(C)O)[C@@H]21 the T/C (dose: 25.0 mg/kg/injection, schedule: Q01DX009 (ip), vehicle: saline with Tween-80) was 102 % of control, the T/C (dose: 50.0 mg/kg/injection, schedule: Q01DX009 (ip), vehicle: saline with Tween-80) was 92 % of control and 113 % of control and the T/C (dose: 100.0 mg/kg/injection, schedule: Q01DX009 (ip), vehicle: saline with Tween-80) was 97 % of control and 108 % of control.
For Cc1ccc(NC(=S)N(C)C)cc1C, the T/C [1] was 100 % of control, the T/C [2] was 100 % of control and the T/C (dose: 400.0 mg/kg/injection, schedule: Q01DX009 (ip), vehicle: Klucel (hydroxypropylcellulose) (HPC)) was 92 % of control.
For O=C1N[C@@H]2C(=C[C@H](O)[C@@H](O)[C@H]2O)c2cc3c(c(O)c21)OCO3, the T/C (dose: 2.5 mg/kg/injection, schedule: Q01DX009 (ip), vehicle: saline with Tween-80) was 111 % of control.
CN(C)CC(C(=O)Cc1ccccc1)c1ccccc1 (stereo unspecified) was tested, and the T/C (dose: 25.0 mg/kg/injection, schedule: Q01DX009 (ip), vehicle: saline) was 93 % of control, the T/C (dose: 50.0 mg/kg/injection, schedule: Q01DX009 (ip), vehicle: saline) was 88 % of control and the T/C (dose: 100.0 mg/kg/injection, schedule: Q01DX009 (ip), vehicle: saline) was 97 % of control.
With CCCCC(CC)C(O)C1CCCCC1O (stereo unspecified) the T/C [1] was 100 % of control and the T/C [2] was 89 % of control.
For Cc1cc[n+](C)c2ccccc12, the T/C (dose: 9.37 mg/kg/injection, schedule: Q01DX009 (ip), vehicle: saline) was 95 % of control, the T/C (dose: 18.75 mg/kg/injection, schedule: Q01DX009 (ip), vehicle: saline) was 92 % of control and the T/C (dose: 37.5 mg/kg/injection, schedule: Q01DX009 (ip), vehicle: saline) was 97 % of control.
